Laboratory results published in US20130116241A1, “NOVEL INHIBITOR COMPOUNDS OF PHOSPHODIESTERASE TYPE 10A” (AbbVie Inc., priority 2011, published 2013).
Counter-ions that a name gives are not always drawn.

Key:
rats [1] = settings: rat, in vivo; cited from earlier work
rats [2] = settings: cited from earlier work
rats [3] = settings: cited from earlier work; remark: listed apart in the source
human PDE10A = human PDE10A (UniProt Q9Y233); assay: Measurement of PDE activity (recombinant enzyme, HTRF cAMP kit); type: biochemical; settings: Table 1, substrate 20 nM for PDE10, 60 minutes at 29 C, read-out: IC50
How it was run: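 HTRF detection of cAMP left after hydrolysis, expressed as percent of uninhibited control to derive IC50. Reaction: serially diluted inhibitor mixed with recombinant enzyme, started with 20 nM cAMP, 60 min at 29 °C in Tris-HCl pH 7.5 buffer containing MgCl2 and BSA.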

Chain of human PDE10A (Q9Y233 290-1055 limits assumed): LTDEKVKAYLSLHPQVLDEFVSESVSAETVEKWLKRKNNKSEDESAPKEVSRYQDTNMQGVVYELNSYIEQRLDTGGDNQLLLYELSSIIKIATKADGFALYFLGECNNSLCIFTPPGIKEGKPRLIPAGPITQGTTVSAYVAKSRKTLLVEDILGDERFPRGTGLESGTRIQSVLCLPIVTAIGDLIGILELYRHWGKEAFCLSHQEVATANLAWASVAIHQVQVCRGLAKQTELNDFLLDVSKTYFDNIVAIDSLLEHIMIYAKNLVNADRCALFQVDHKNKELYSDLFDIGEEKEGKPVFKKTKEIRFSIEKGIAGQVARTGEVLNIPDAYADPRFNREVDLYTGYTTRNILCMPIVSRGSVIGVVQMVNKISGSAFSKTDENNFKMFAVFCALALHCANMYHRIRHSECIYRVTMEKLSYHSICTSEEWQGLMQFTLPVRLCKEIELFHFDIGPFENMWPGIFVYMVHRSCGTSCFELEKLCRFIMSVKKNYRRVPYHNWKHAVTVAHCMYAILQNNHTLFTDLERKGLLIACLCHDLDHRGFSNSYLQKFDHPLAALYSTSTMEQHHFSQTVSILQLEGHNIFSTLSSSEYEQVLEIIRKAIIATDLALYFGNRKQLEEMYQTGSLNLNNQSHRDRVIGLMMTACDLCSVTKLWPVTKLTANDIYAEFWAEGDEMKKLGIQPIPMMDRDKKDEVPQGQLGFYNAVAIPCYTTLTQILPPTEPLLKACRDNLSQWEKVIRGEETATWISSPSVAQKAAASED

Row | Structure (SMILES) | IC50 (human PDE10A) [nM] | other results
1 | COc1ccc(Cc2nccc3cc(OC)c(OC)cc23)cc1OC [Papaverine, papaverine] | – | reduction of amphetamine-induced hyperactivity (rats [1]): insignificant; hyperactivity induced by PCP (rats [2]): reduced hyperactivity; catalepsy on its own (rats [3]; compound alone): did not cause catalepsy on its own; cataleptic effect of the D2 receptor antagonist haloperidol (rats [3]; with haloperidol): potentiated the cataleptic effect
2 | O=c1c2c(NC3COC3)cccc2cnn1CCc1cn2ccccc2n1 [compound 395, 2-[2-(imidazo[1,2-a]pyridin-2-yl)ethyl]-8-(oxetan-3-ylamino)phthalazin-1(2H)-one] | < 100 | –
3 | O=c1c2cccc(N3CCOCC3)c2cnn1CCc1ccc2ccccc2n1 [compound 397, hydrochloride] | < 100 | –
4 | O=c1c2cccc(-c3ccncc3)c2cnn1CCc1nc2ccccc2[nH]1 [compound 398, 2-[2-(1H-benzimidazol-2-yl)ethyl]-5-(pyridin-4-yl)phthalazin-1(2H)-one] | 100 to 200 | –
5 | O=c1c2ccccc2c(-c2cccnc2)nn1CCc1ccc2ccccc2n1 [compound 399, 4-(pyridin-3-yl)-2-[2-(quinolin-2-yl)ethyl]phthalazin-1(2H)-one] | < 100 | –
6 | O=c1c2cccc(-c3ccncc3)c2cnn1CCc1cn2ccccc2n1 [compound 401, 2-[2-(imidazo[1,2-a]pyridin-2-yl)ethyl]-5-(pyridin-4-yl)phthalazin-1(2H)-one] | < 100 | –
7 | O=c1c2cccc(-c3cccnc3)c2cnn1CCc1ccc2ccccc2n1 [compound 402, 5-(pyridin-3-yl)-2-[2-(quinolin-2-yl)ethyl]phthalazin-1(2H)-one] | < 100 | –
8 | CC1(CNc2cccc3cnn(CCc4cn5ccccc5n4)c(=O)c23)COC1 [compound 403] | < 100 | –
9 | O=c1c2c(-c3ccncc3)ccnc2cnn1CCc1ccc2ccccc2n1 [compound 404, 4-(pyridin-4-yl)-6-[2-(quinolin-2-yl)ethyl]pyrido[2,3-d]pyridazin-5(6H)-one] | < 100 | –
10 | O=c1c2c(N3CCOCC3)ccnc2cnn1CCc1ccc2ccccc2n1 [compound 405, 4-(morpholin-4-yl)-6-[2-(quinolin-2-yl)ethyl]pyrido[2,3-d]pyridazin-5(6H)-one] | < 100 | –
11 | O=c1c2c(NC3COC3)ccnc2cnn1CCc1ccc2ccccc2n1 [compound 406, 4-(oxetan-3-ylamino)-6-[2-(quinolin-2-yl)ethyl]pyrido[2,3-d]pyridazin-5(6H)-one] | < 100 | –
12 | COc1ccc2nc(/C=C/n3ccc4scc(-c5ccncc5)c4c3=O)ccc2c1 [compound 410] | < 100 | –
13 | O=c1c2c(-c3ccncc3)cccc2ccn1/C=C/c1ncc2ccccc2n1 [compound 411, 8-(pyridin-4-yl)-2-[(E)-2-(quinazolin-2-yl)ethenyl]isoquinolin-1(2H)-one] | 100 to 200 | –
14 | O=c1c2c(-c3ccncc3)csc2ccn1/C=C/c1ccc2cc(Cl)ccc2n1 [compound 412, 5-[(E)-2-(6-chloroquinolin-2-yl)ethenyl]-3-(pyridin-4-yl)thieno[3,2-c]pyridin-4(5H)-one] | < 100 | –
15 | Cc1cc2ccccc2nc1/C=C/n1ccc2scc(-c3ccncc3)c2c1=O [compound 413, 5-[(E)-2-(3-methylquinolin-2-yl)ethenyl]-3-(pyridin-4-yl)thieno[3,2-c]pyridin-4(5H)-one] | < 100 | –
16 | O=c1c2c(-c3ccncc3)csc2ccn1/C=C/c1nc2ccccc2s1 [compound 415, 5-[(E)-2-(1,3-benzothiazol-2-yl)ethenyl]-3-(pyridin-4-yl)thieno[3,2-c]pyridin-4(5H)-one] | < 100 | –
17 | O=c1c2c(-c3ccncc3)csc2ccn1/C=C/c1ccc2ccccc2n1 [compound 416, 3-(pyridin-4-yl)-5-[(E)-2-(quinolin-2-yl)ethenyl]thieno[3,2-c]pyridin-4(5H)-one] | < 100 | –
